Results as given in patent US20050090454A1, “Combination of dehydroepiandrosterone or dehydroepiandrosterone-sulfate with an antihistamine for treatment of asthma or chronic obstructive pulmonary disease” (priority 2003, published 2005).
Values joined by “and” are separate entries in the source; they are usually repeats but may differ in a detail not shown here. Identical values can stand only once.

Assays:
[1] = test system: Intracellular adenosine in rat heart, liver, lung and brain; experiment: In vivo effect on adenosine levels in rat tissues
Description: Hearts were removed from animals and flash frozen in liquid nitrogen with 10 s of death. Liver and lungs were removed en bloc and flash frozen with 30 s of death. Brain tissue was subsequently dissected.

HT-29 SF cells [2] = experiment: Reversal of DHEA effect on cell cycle; assay type: cell-based, human; details: supplement with 25 μM DHEA
HT-29 SF cells [3] = experiment: DHEA effect on cell growth (Coulter counter); details: 12.5-200 μM, 24-72 hours
Protocol: Cell cultures, HT-29 SF cells, which represent a subline of HY-29 cells (ATCC, Rockville, Md.) and are adapted for growth in completely defined serum-free PC-1 medium (Ventrex, Portland, Me.), were obtained. Stock cultures were maintained in this medium at 37° C. (in a humidified atmosphere containing 5% CO2).

HT-29 SF cells [4] = experiment: DHEA effect on cell cycle distribution (flow cytometry); assay type: cell-based, human; details: 25, 50 or 200 μM, 24-72 hours, time- and dose-dependent
Protocol: Cultures were trypsinized following 0, 24, 48, or 74 hours and fixed and stained using a modification of a procedure of Bauer et al., Cancer Res. 46, 3173-3178 (1986). Briefly, cells were collected by centrifugation and resuspended in cold phosphate-buffered saline. Cells were fixed in 70% ethanol, washed, and resuspended in phosphate-buffered saline.
After 24, 48, and 72 hours, cells were harvested, fixed in ethanol, and stained with propidium iodide, and the DNA content/cell was determined by flow cytometric analysis. The percentage of cells in G1, S, and G2M phases was calculated using the Cellfit cell cycle analysis program. S phase is marked by a quadrangle for clarity. Representative histograms from duplicate determinations are shown. The experiment was repeated three times.

[5] = test system: rat peritoneal mast cells; experiment: Histamine secretion after stimulation with compound 48/80; assay type: cell-based
Protocol: Freshly isolated rat peritoneal mast cells (2×10^5 cells) were pre-incubated for 5 min at 37° C. in a Balanced Salt Solution containing 150 mM NaCl ([…]), 2.7 mM KCl, 0.9 mM CaCl2, 4 mM Na2HPO4, 2.7 mM KH2PO4, 1.75 mg/ml BSA and 0.1 μg/ml compound 48/80. Thereafter, DHEAS or water (control) are added and the mixture is incubated for 2 min at 37° C.
Following incubation, the mixture is cooled to 4° C. then centrifuged at 4500 rpm for 5 min The supernatant is collected and mixed for 30 min at 4° C. with 5% TCA (trichloroacetic acid) to cause protein precipitation. After centrifugation at 9500×g for 15 min, the supernatant is collected and mixed with 0.25 M HCl. Thereafter, the samples are mixed with 2M NaOH and 0.2% OPT (ortho-phtalaldehyde) and incubated for 30 min at 4° C. in darkness, after which time the reaction is stopped by addition of 0.5 M H2SO4.

[6] = Solubility of DHEA-S as a function of NaCl and temperature; assay type: physicochemical; details: for Equilibrium constant Ksp=[DHEA-S−][Na+]: slope of solubility vs reciprocal sodium concentration
Description: Inhalation of pure water can produce a cough stimulus. […] The temperature effect is weaker at high NaCl concentrations.

[7] = HPLC check of drug degradation during jet milling; assay type: physicochemical; details: HPLC peak area vs unmilled standard, single- and double-pass
Protocol: The chromatographic peak area for the HPLC assay of the unmilled drug standard solution (10 mg/ml) gave a value of 23,427. […] The chromatographic peak areas for vials A and B were 11,979 and 11,677, respectively.

Compound: Nc1nc(=O)c2c([nH]1)NCC(CNc1ccc(C(=O)N[C@@H](CCC(=O)O)C(=O)O)cc1)N2C=O (mixture of isomers) [Folinic Acid, Folinic acid]
- Effect on steroid-mediated adenosine depletion ([1]; coadministration with DHEA or methyltestosterone): completely abrogated steroid-mediated adenosine depletion
- Effect on adenosine levels ([1]; rat, in vivo): increase in adenosine levels for all organs studied

Compound: CC(C)CCC[C@@H](C)[C@H]1CC[C@H]2[C@@H]3CC=C4C[C@@H](O)CC[C@]4(C)[C@H]3CC[C@]12C [CH, cholesterol]
- Prevention of DHEA-induced reduction of cells in S phase (HT-29 SF cells [2]; 48 hours): very little effect
- Prevention of DHEA-induced reduction of cells in S phase (HT-29 SF cells [2]; 72 hours): no effect

Compound: C[C@]12CC[C@H](O)CC1=CC[C@@H]1[C@@H]2CC[C@]2(C)C(=O)CC[C@@H]12 [DHEA, 3β-hydroxyandrost-5-en-17-one]
- Effect on cell growth (HT-29 SF cells [3]): time- and dose-dependent inhibition of growth
- Effect on cell cycle (HT-29 SF cells [4]): G1 block

Compound: C[C@]12CC[C@H](OS(=O)(=O)[O-])CC1=CC[C@@H]1[C@@H]2CC[C@]2(C)C(=O)CC[C@@H]12.[Na+] [DHEA-S, sodium dehydroepiandrostenone sulfate]
- Solubility under the assay conditions ([5]; at 10^-4 M): highly limited
- EC50 ([5]; compound 48/80 0.1 μg/ml, 2 min at 37° C., read-out: EC50, inhibition of histamine release): 170 nM
- Estimated DHEA-S concentration in solution ([6]; 15° C., 20 mM Na+, Ksp 1316 mM^2, quadratic formula): 27.5 mM and 10.7 mg/mL
- Ksp at 15° C. ([6]; interpolated versus reciprocal of absolute temperature): ~1316 mM^2
- Equilibrium constant Ksp=[DHEA-S−][Na+] ([6]; refrigerated (7-8° C.)): 665 mM2
- Equilibrium constant Ksp=[DHEA-S−][Na+] ([6]; room temperature (24-25° C.)): 2236 mM2
- Degradation of the drug during jet milling micronization [7]: no detectable degradation

Compound: C[C@@](O)(CCO)CC(=O)O [MVA, mevalonic acid]
- Prevention of DHEA-induced reduction of cells in S phase (HT-29 SF cells [2]; 48 hours): partially prevented
- Prevention of DHEA-induced reduction of cells in S phase (HT-29 SF cells [2]; 72 hours): not after 72 hours
